These results are taken from patent publication US20250127896A1, “CHIMERIC TIM4 RECEPTORS AND USES THEREOF” (CERO THERAPEUTICS HOLDINGS, INC., priority 2021, published 2025).

One series deals with Jeko1 TMEM30A−/− cells. As to the kind of experiment: CER T cell cytotoxicity against Jeko1 TMEM30A−/− cells (Incucyte). Particulars: for cytotoxic function against Jeko1 TMEM30A−/− cells: co-culture assays. The series is classed as cell-based. As to the method:
FIG. 22: CER1234 or CER1236 T cells display cytotoxic function against Jeko1 TMEM30A^−/− MCL cells as measured by incucyte assay.
Statistical analysis was performed using 2-way ANOVA.

The subject of a further series is E7 TCR T cells. As to the kind of experiment: APC-like function after co-culture with PS-positive E7-positive SCC152 cells: HLA-DR/CD25 on E7 TCR T cells. The series is classed as cell-based. Particulars: for antigen presentation function versus untransduced T cells: FIG. 52, FIG. 53; for antigen presentation function, overall (FIGS. 50-54): repeated experiments; for activation (HLA-DR) of autologous E7 TCR T cells: after co-culture with E7-positive/PS-positive SCC152 cells, vs untransduced T cells or anti-CD19 CAR T cells. The source says: FIGS. 25A-25B: CER1236 T cells activate E7 TCR T cells via presentation of tumor cell-derived E7 antigen in an HLA-I-dependent manner. […] FIG. 25B: In a separate experiment, induction of HLA-DR on E7 TCR cells following co-culture of CER-1236 with E7 oncoprotein positive/PS-positive SCC152 cells was blocked by HLA-I blocking antibody, but not a control isotype antibody. Bars depict percentage of E7 TCR T cells that express the activation marker, HLA-DR. Error bars show SEM.
FIGS. 36A-36B: CER1236 T cells activate E7 TCR T cells via presentation of tumor cell-derived E7 antigen in an HLA-I-dependent manner. […] FIG. 6B: In a separate experiment, induction of HLA-DR on E7 TCR cells following co-culture of CER-1236 with E7 oncoprotein positive/PS-positive SCC152 cells was blocked by HLA-I blocking antibody, but not a control isotype antibody. Bars depict percentage of E7 TCR T cells that express the activation marker, HLA-DR. Error bars show SEM.
CER1183, CER1161, CER1234 or CER1236 T cells were cultured alone or co-cultured with phosphatidylserine-positive HPV E7 oncoprotein-positive cells (TMEM30A−/− SCC152) for 48 hours, followed by positive selection of T cells and co-culture for a 4 days with cell trace violet labeled-HPV E7 TCR T cells.
CER1183, CER1161, CER1234 or CER1236 T cells were cultured alone or co-cultured with phosphatidylserine-positive HPV E7 oncoprotein-positive cells (TMEM30A−/−SCC152) for 48 hours, followed by positive selection of T cells and co-culture for 4 days (FIG. 51, left graph) or 6 days (FIG. 51, right graph) with cell trace violet labeled-HPV E7 TCR T cells.
CER1183, CER1161, CER1234 or CER1236 T cells were cultured alone or co-cultured with phosphatidylserine-positive HPV E7 oncoprotein-positive cells (TMEM30A−/− SCC152) for 48 hours, followed by positive selection of T cells and co-culture for 4 days with cell trace violet labeled-HPV E7 TCR T cells.
CER1183, CER1161, CER1234 or CER1236 T cells were cultured alone or co-cultured with phosphatidylserine-positive HPV E7 oncoprotein-positive cells (TMEM30A−/−SCC152) for 48 hours, followed by positive selection of T cells and co-culture for 6 days with cell trace violet labeled-HPV E7 TCR T cells.
Antigen-presenting cell (APC)-like function of CER T cells was assessed after a 48-hour co-culture with phosphatidylserine-positive E7 oncoprotein-positive cells. T cells were separated and co-cultured for 4 days with cell trace violet-labeled E7 TCR T cells. The activation marker HLA-DR on E7 TCR T cells was analyzed using flow cytometry. Phosphatidylserine-positive SCC152 squamous cell carcinoma cells were engineered by knockout of the TMEM30A gene (a flippase chaperone required for PS internalization). The role of HLA-I in APC-like function was determined by performing the same experiment in the presence of HLA-I blocking or the corresponding isotype antibodies.
Phosphatidylserine exposure on A2780 ovarian cancer cells upon treatment with the small molecule PARP inhibitors niraparib or olaparib was evaluated by annexin v staining to determine the appropriate drug dose. Phosphatidylserine targeting Tim-4 CER constructs designed to enhance cytotoxicity and target-dependent tumor cell fragment uptake were engineered. CER T cell designs were as follows: CER-1234 (Tim-4/CD28/TLR2/CD3z; SEQ ID NO:18); CER-1236 (Tim-4/CD28/CD3z/TLR2; SEQ ID NO:19); and CER-1250 (Tim-4 binding mutant/CD28/TLR2/CD3z; SEQ ID NO:24). CER-1250 has the same intracellular signaling domains as […] but has a mutated IgV domain with AAAA substitution to abrogate phosphatidylserine binding. Niraparib (0.5 μM) and olaparib (1.5 μM) were used to expose phosphatidylserine on the surface of A2780 cells for CER T cell recognition and cytotoxicity, T-cell activation, and cytokine responses were evaluated. Uptake of antigen by CER-1236 T cells was modeled with human papilloma virus E7 antigen-expressing squamous carcinoma (SCC152) TMEM30A phospholipid flippase knockout cells. […]

For series [1], the system named is A2780 ovarian cancer cells. As to the kind of experiment: T cell phenotype (CCR7, CD4/CD8) and proliferation in A2780 / PARP inhibitor co-culture. It is filed as cell-based, human. Particulars: for CCR7 expression (% CCR7+ cells in Tim4+ T cells): 120 hours co-culture with olaparib-treated A2780 cells; for CER T cell proliferation: co-cultures treated with PARPi vs wtTIM-4 T cells or no drug, E:T 1:1. The source says:
FIGS. 27A-27B show a (FIG. 27A) schematic of chimeric Tim4 receptors, CER-1234 and CER1236 of the present disclosure; and (FIG. 27B) a schematic of assay set up for assessing immune phenotype of the chimeric Tim4 receptors in co-culture with PARP inhibitor treated ovarian cancer cells. CER-1234 and CER1236 have an extracellular Tim4 binding domain, CD28 transmembrane domain, CD28 signaling domain, TLR2 signaling domain, and CD3ζ signaling domain, and showing the orientation of the signaling domains in the chimeric Tim4 receptor constructs. A control molecule, CER-1183, having a Tim4 extracellular binding domain, a Tim4 transmembrane domain, and Tim4 signaling domain is also depicted.
Samples on bar graph from left to right: A2780+ T cell, A2780+ T cell +niraparib, and A2780+ T cell +olaparib. […] For FIGS. 29A-29C, co-culture conditions A2780+ T cell; A2780+ T cell +niraparib; A27080+ T cell +olaparib are shown from left to right in the bar graph for each donor T cell sample.
FIGS. 30A-30C show CD4/CD8 T cell ratio at 120 hours of co-culture of chimeric Tim4 receptor transduced T cells, olaparib or niraparib, and target A2780 ovarian cancer cells. Samples on bar graph from left to right: A2780+ T cell, A2780+T cell +niraparib, and A2780+ T cell +olaparib. […] For FIGS. 4A-4C, co-culture conditions A2780+ T cell; A2780+ T cell +niraparib; A27080+T cell +olaparib are shown from left to right in the bar graph for each donor T cell sample.
Expression of TIM-4, CD45RA, and CCR7 as well as CD4/CD8 ratios were evaluated by flow cytometry using commercially available fluorochrome-conjugated antibodies. Proliferation was measured by flow cytometry using precision count beads to determine the absolute counts of viable T cells at the end of the co-culture. T-cell proliferation is reported as the fold expansion of T cell counts at 120 hours relative to 0 hours.

Consider “CER-1234: chimeric Tim4 receptor: Tim4 binding domain-CD28tm-CD28-TLR2 TIR-CD3z, SEQ ID NO:18; tested as transduced T cells”, for which the targets eliminated with Jeko1 TMEM30A−/− cells (JeKo-1 PS+ cells, 96 hrs, low effector:target ratios) was 90%. Moreover, in the series with Jeko1 TMEM30A−/− cells, the “cytotoxic function against Jeko1 TMEM30A−/− cells” value is “efficiently eliminate Jeko1 TMEM30A^−/− cells”. Further, in the series with E7 TCR T cells, the “antigen presentation function versus untransduced T cells” value is “display better antigen presentation function than untransduced T cells” and the “antigen presentation function, overall (FIGS. 50-54)” value is listed as “did not show any antigen presentation function over untransduced T cells in some experiments”. In series [1], the “CCR7 expression (% CCR7+ cells in Tim4+ T cells)” value was “Higher CCR7 expression” and the “CER T cell proliferation” value is “proliferated in co-cultures treated with PARPi”.
Regarding “CER-1236: chimeric Tim4 receptor: Tim4 binding domain-CD28tm-CD28-CD3z-TLR2 TIR, SEQ ID NO:19; tested as transduced T cells”, the “cytotoxic function against Jeko1 TMEM30A−/− cells” value with Jeko1 TMEM30A−/− cells was “efficiently eliminate Jeko1 TMEM30A^−/− cells”. Further, the “HLA-DR MFI versus untransduced T cells” value with E7 TCR T cells (FIG. 50, FIG. 51, FIG. 54) is “significant difference in HLA-DR MFI”. In addition, in the series on E7 TCR T cells, the “antigen presentation function versus untransduced T cells” value is “display better antigen presentation function than untransduced T cells”; the “activation (HLA-DR) of autologous E7 TCR T cells” value is reported as “induced HLA-DR on E7 TCR cells”; the “antigen presentation function, overall (FIGS. 50-54)” value is reported as “consistently had better antigen presentation function compared to untransduced T cells”. Also, in the series with E7 TCR T cells (HLA-I blocking vs isotype antibody), the “HLA class I dependence of E7 TCR activation” value is “dependent on antigen presentation via the HLA class I system”. The “activation (HLA-DR) of autologous E7 TCR T cells” value with E7 TCR T cells (listed as CER1236) is listed as “supported greater activation of autologous E7 TCR T cells”. In addition, the “increase of activation status of E7 TCR T cells” value with E7 TCR T cells (exposed to TMEM30A″ SCC152 cancer cells relative to CER-1236 T cells alone) was 5 fold. Moreover, the CD4/CD8 ratio result in series [1] (120 hours co-culture with PARPi-treated A2780, donor 38 and donor 41) is on record as “higher CD4/CD8 ratios”. In addition, in series [1], the “CCR7 expression (% CCR7+ cells in Tim4+ T cells)” value is reported as “Higher CCR7 expression” and the “CER T cell proliferation” value is given as “proliferated in co-cultures treated with PARPi”.
